Read-outs that look alike come from different tables or passages of the source.
Legend:
[1] = tested on: P. falciparum stages IV–V gametocytes; assay: Gametocytocidal ATP-depletion assay (gametocyte ATP bioluminescence); type: cell-based, Plasmodium falciparum
How it was run: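 Purified stage IV–V gametocytes (12,500/well) incubated with compound for 48 h at 37 °C under 3% O2/5% CO2. ATP measured by BacTiter-Glo luminescence as a viability surrogate; hits tested at 2 μM single concentration.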

[2] = tested on: P. falciparum asexual blood stages; conditions: read-out: Pf Asexual blood stages XC50, cited from earlier work
HepG2 cells = assay: HepG2 cytotoxicity assay; type: cell-based
How it was run: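 Steps: equilibrate plates and detection reagent at room temperature (30 min); dispense CellTiter-Glo; allow 10 min at room temperature; record luminescence.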

[3] = tested on: P. falciparum stage V female gametocytes; assay: P. falciparum female gametocyte activation assay (Pf FGAA), 24 h or 48 h preincubation, Pfs25 expression readout; type: cell-based, Plasmodium falciparum NF54; conditions: mean, read-out: Gametocytes mean Pf FGAA IC50
How it was run: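 Purified stage V gametocytes from P. falciparum NF54 gametocyte cultures were exposed to compounds for 24 h or 48 h at 37 °C under 3% O2/5% CO2, then activated by temperature drop plus xanthurenic acid. Activated females were stained with Cy3-anti-Pfs25 (0.5 μg ml^−1) for 24 h at 26 °C and counted by high-content imaging; pIC50 by nonlinear regression.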

[4] = TCAMS data, ref 1 (Gamo et al., 2010)
[5] = TCAMS asexual blood stage data, ref 1 (Gamo, F. J. et al., Nature 465, 305-310, 2010)
[6] = P. falciparum female gametocytes
[7] = P. falciparum female gametocyte activation assay

IC50 [3] [nM] | IC50 [3, 6] [nM] | SMILES | Gametocytes mean ATP inhibition at 2µM (%) [1] [%] | IC50 [2, 4] [nM] | HepG2 cells mean TOX50 (HepG2 cells; mean) [µM] | Gametocytes mean ATP inhibition at 2µM [1] [%] | IC50 [2, 5] [nM] | HepG2 cells mean TOX50 (HepG2 cells; HepG2 cells; mean) [µM] | also measured
1320 |  | CC(C)NCc1ccc(OCc2cccc(COc3ccc(CNC(C)C)cc3I)c2)c(I)c1.Cl [TCMDC-137259] | 81.19 | 90 | 1.64 |  |  |  | 
 | 830 | COc1ccc(CCNCCCCCCNCCc2ccc(Cl)cc2)c(Cl)c1OC.Cl [TCMDC-131272] |  |  |  | 24.24 | 820 | 5.54 | 
1390 |  | CC(CCCCCC(=O)Nc1ccc(CC(C)NCCc2cccc(Cl)c2)cc1)NCCc1cccc(Cl)c1 (stereo not shown) [TCMDC-139800] | 20.09 | 950 | 2.55 |  |  |  | 
2000 |  | CC(C)(C)c1ccc(CNC(=O)c2cc(CNC3CCNCC3)ccc2O)cc1 [TCMDC-140775] | -11.19 | 710 | 13.96 |  |  |  | 
 | 1460 | COc1ccc(-c2csc3ncnc(Cl)c23)cc1 [TCMDC-123805] |  |  |  | -0.54 | 780 | 0.55 | 
880 |  | CC(C)Cn1cc(C2CCN(CCN3CCC(CNC(=O)c4ccc(-c5ccc(C(F)(F)F)cc5)cc4)CC3)CC2)c2ccccc21 [TCMDC-138852] | 30.37 | 750 | 4.80 |  |  |  | 
 | 4070 | COc1ccccc1CNc1ccnc(N2CC(Oc3ccc(F)cc3)C2)n1 [TCMDC-135118] |  |  |  | 42.55 | 850 | 73.68 | 
 |  | Nc1nc(N)c2cc(NC(=O)c3ccc(Cl)c(Cl)c3)ccc2n1 [TCMDC-141982] |  |  |  | 1.96 | 150 |  | HepG2 cells mean TOX50 (HepG2 cells; mean; HepG2 cells): 2.14 µM; IC50 [3, 7]: 1590 nM
1920 |  | CC(C)(C)c1ccc(CNC(=O)/C=C/c2ccc(CNC3CCNCC3)cc2)cc1 [TCMDC-140773] | 8.96 | 1090 | 9.47 |  |  |  | 
 | 1430 | O=C(Nc1cc(C(F)(F)F)cc(C(F)(F)F)c1)Nc1ccc(Cl)c(Cl)c1 [TCMDC-125592] |  |  |  | -6.96 | 240 | 3.07 | 
 | 1300 | Br.CCc1c(CCNCCCCCCNCCc2ccc(Br)cc2)ccc(O)c1O [TCMDC-132044] |  |  |  | 6.14 | 900 | 7.96 | 
 | 1340 | CCn1c(Sc2ccc([N+](=O)[O-])c(C#N)c2)nnc1-c1cccc(Cl)c1 [TCMDC-135234] |  |  |  | 46.72 | 870 | 18.80 | 
1970 |  | CCCCN(CCCC)CCCCNc1c2ccc(Cl)cc2nc2ccc(OC)cc12.Cl [TCMDC-137460] | 11.49 | 180 | 4.73 |  |  |  | 
980 |  | CC(=O)c1ccc2nc[nH]c(=O)c2c1 [TCMDC-138172] | 67.05 | 720 | 6.24 |  |  |  | 
720 |  | COc1ccc(CNCCCCCCNCc2ccc(OC)c3ccccc23)c2ccccc12.Cl [TCMDC-137631] | 16.64 | 580 | 1.82 |  |  |  | 
520 |  | Cl.Clc1ccc(OCCC2CCN(CCCCCCCN3CCC(CCOc4ccc(Cl)c(Cl)c4)CC3)CC2)cc1Cl [TCMDC-138967] | 95.79 | 620 | 1.64 |  |  |  | 
 | 2150 | Br.CCCCc1ccc(CCNCCCCCCNCCc2ccc(O)c(O)c2)cc1 [TCMDC-131281] |  |  |  | 60.07 | 1070 | 4.63 | 
860 |  | Cc1cc(N)c2cc(NC(=O)c3cc(C(F)(F)F)cc(C(F)(F)F)c3)ccc2n1.Cl [TCMDC-139377] | 0.86 | 90 | 2.60 |  |  |  | 
 | 2450 | Cc1n[nH]c2ccc(-c3ccc4nccc(N5CCC(N)CC5)c4c3)cc12.Cl [TCMDC-134315] |  |  |  | 71.38 | 590 | 6.88 | 
1000 |  | CC(NCCc1cccc(Cl)c1)C(O)c1ccc(OCCCCCCOc2ccc(C(O)C(C)NCCc3cccc(Cl)c3)cc2)cc1 (stereo not shown) [TCMDC-139334] | 41.15 | 400 | 2.63 |  |  |  | 
7250 |  | CC1CCCCN1CCCNc1nc(NCc2ccccc2)c2ccccc2n1 (stereo not shown) [TCMDC-137771] | 38.73 | 950 | 14.62 |  |  |  | 
 |  | CC(C)(CN)c1cc(-c2ccc(Cl)c(O)c2)c(-c2ccncc2)o1.Cl [TCMDC-141334] |  |  |  | -5.00 | 1140 |  | HepG2 cells mean TOX50 (HepG2 cells; mean; HepG2 cells): 9.98 µM; IC50 [3, 7]: 420 nM
 |  | CC[C@H]1CN2CCc3cc(OC)c(OC)cc3[C@@H]2C[C@@H]1C[C@H]1NCCc2cc(OC)c(OC)cc21 [TCMDC-125531] |  |  |  |  | 210 | 9.77 | inhibition at 2 µM ([1]; Plasmodium falciparum, mean): 56%; IC50 ([3]; Plasmodium falciparum, P. falciparum female gametocytes): 2730 nM
 | 2560 | CCc1c(CCNC/C=C/C=C/CNCCc2ccc(OC)c(OC)c2CC)ccc(OC)c1OC.Cl [TCMDC-132061] |  |  |  | 13.62 | 970 | 4.68 | 
 | 1460 | NCCCCNc1cc(-c2ccnc(Nc3cccc(Cl)c3)n2)ccn1 [TCMDC-134683] |  |  |  | -0.61 | 280 | 0.67 | 
1670 |  | COc1c(OC)c(OC)c2ccccc2c1CNCCCCCCNCc1c(OC)c(OC)c(OC)c2ccccc12.Cl [TCMDC-137827] | -6.56 | 760 | 2.95 |  |  |  | 

SMILES | IC50 [3] [nM] | IC50 [3, 6] [nM] | Gametocytes mean ATP inhibition at 2µM (%) [1] [%] | IC50 [2, 4] [nM] | HepG2 cells mean TOX50 (HepG2 cells; mean) [µM] | Gametocytes mean ATP inhibition at 2µM [1] [%] | IC50 [2, 5] [nM] | HepG2 cells mean TOX50 (HepG2 cells; HepG2 cells; mean) [µM] | also measured
CN1CCC(N2CCN(Cc3cccc(-c4ccc(-c5nc6cc(C(F)(F)F)ccc6[nH]5)cc4)c3)CC2)CC1.O=C(O)C(F)(F)F [TCMDC-133842] |  | 1090 |  |  |  | 4.02 | 140 | 2.44 | 
CC(C)(C)c1ccc(CN2CCC(CNC(=O)c3cc(-c4cccc(F)c4)cs3)C2)cc1.O=C(O)C(F)(F)F (stereo not shown) [TCMDC-134444] |  | 1320 |  |  |  | 0.99 | 900 | 6.61 | 
CN(C)CCCOc1ccc(CN2CCC(c3c[nH]c4ccc(NCC5CCCCC5)cc34)CC2)cc1.O=C(O)C(F)(F)F [TCMDC-140737] | 560 |  | -13.51 | 680 | 5.48 |  |  |  | 
CS(=O)(=O)O.FC(F)(F)COc1ccc2ccccc2c1CNCCCCCCNCc1c(OCC(F)(F)F)ccc2ccccc12 [TCMDC-137816] | 1090 |  | 27.96 | 350 | 1.84 |  |  |  | 
Cc1cc2nc(N=C3NC4(c5ccccn5)NC(=Nc5nc6cc(C)c(C)cc6[nH]5)NC4(c4ccccn4)N3)[nH]c2cc1C.O=C(O)C(F)(F)F (stereo not shown) [TCMDC-139105] | 5340 |  | 33.60 | 680 | 35.91 |  |  |  | 
CC(C)c1ccc(CN2CCC(CNC(=O)c3cc(-c4ccccc4F)cs3)C2)cc1.O=C(O)C(F)(F)F (stereo not shown) [TCMDC-134436] |  | 1080 |  |  |  | -11.71 | 990 | 9.14 | 
COc1cc2nc(N3CCN(C(=O)c4c(Cl)nsc4-c4ccccc4Cl)CC3)nc(N)c2cc1OC.O=C(O)C(F)(F)F [TCMDC-138186] | 990 |  | 69.90 | 530 | 5.89 |  |  |  | 
COc1cccc(-c2csc(C(=O)NCC3CCN(Cc4ccc(C(C)(C)C)cc4)C3)c2)c1.O=C(O)C(F)(F)F (stereo not shown) [TCMDC-134447] |  | 650 |  |  |  | -7.16 | 1180 | 5.78 | 
CN1CCCC(CN2CCN(Cc3cccc(-c4ccc(-c5nc6cc(C(F)(F)F)ccc6[nH]5)cc4)c3)CC2)C1.O=C(O)C(F)(F)F (stereo not shown) [TCMDC-133882] |  | 1300 |  |  |  | 1.53 | 150 | 4.07 | 
CCCOc1ccc(CCNCCCCNCCc2ccc(OCCC)c3ccccc23)c2ccccc12.CS(=O)(=O)O [TCMDC-137952] | 610 |  | 94.33 | 920 | 2.16 |  |  |  | 
CC(C)(CN)c1nc(-c2ccc(Cl)c(O)c2)c(-c2ccncc2)[nH]1.Cl [TCMDC-140369] | 940 |  | -0.49 | 760 | 2.16 |  |  |  | 

Reference: publication PMC5442318, “Hundreds of dual-stage antimalarial molecules discovered by a functional gametocyte screen” (Nature Communications, 2017)
